Measured values as given in patent US10618930B2, “Compounds for the treatment of cancer” (Eisai R&D Management Co., Ltd., priority 2017, dated 2020).
Read-outs that look alike come from different tables or passages of the source. Each block holds one compound with its values, some of them ahead of it.

Tests used:
REF Human STING = REF Human STING (Homo sapiens, UniProt Q86WV6); assay: STING variant specific reporter assay, REF-STING (THP1-Dual KO-STING cells); conditions: read-out: Human STING EC50 (μM) REF; Table 5; ammonium salt form of each compound
REF Human STING, sequence (Q86WV6 whole entry): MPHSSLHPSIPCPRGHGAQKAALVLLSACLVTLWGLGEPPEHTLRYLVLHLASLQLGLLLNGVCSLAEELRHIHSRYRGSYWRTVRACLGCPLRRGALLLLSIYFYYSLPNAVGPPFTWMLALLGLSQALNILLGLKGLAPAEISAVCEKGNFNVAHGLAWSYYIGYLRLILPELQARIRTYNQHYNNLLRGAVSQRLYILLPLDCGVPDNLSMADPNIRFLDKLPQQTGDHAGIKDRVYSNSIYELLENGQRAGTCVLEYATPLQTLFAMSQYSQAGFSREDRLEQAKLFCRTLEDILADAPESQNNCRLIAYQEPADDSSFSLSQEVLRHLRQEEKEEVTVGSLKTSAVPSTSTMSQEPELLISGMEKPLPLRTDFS

Human STING = Human STING (Homo sapiens, UniProt Q86WV6); assay: Human STING reporter assay, Tables 6-8 (variant named only in a drawing); conditions: read-out: Human STING EC50 (μM)
Human STING, sequence (Q86WV6 whole entry): as above

[1] = tested on: primary human PBMC IFNβ protein production; assay: Ex vivo human PBMC stimulation assay, IFNβ protein; format: cell-based; conditions: average of five donors
Description: After 24 hours of incubation the tubes were centrifuged at 1400 rpm for 5 minutes and supernatants were harvested. Supernatant were stored in −80° C. for subsequent IFNβ measurement. IFNβ measurement was done using Human IFN-β Base Kit (Meso Scale Diagnostics cat # K151ADA) and protocol provided by manufacturer was used. IFN-beta estimation was done by reading assay plate at MESO SECTOR Imager 2400 and using MSD Discovery Workbench 4.0 program. After 24 hours IFNβ protein was analyzed.
Results shown in Table 10 reflect an average of measurements conducted using five different donors.

[2] = tested on: hepatocytes of Cynomolgus monkey; assay: Hepatocyte incubation, metabolite identification (monkey); format: in vitro ADME; conditions: 10 μmol/L
Description: (§1) Prior to incubations, the cryopreserved hepatocytes were thawed in a water bath at 37° C. One tube of cryopreserved hepatocytes was added to each 50-mL conical tube of cryopreserved hepatocyte recovery medium (UCRM) obtained from In Vitro ADMET Laboratories (Columbia, Md.). The cells were spun in a Beckman centrifuge (Brea, Calif.) with a GH 3.8 rotor at 740 rpm for 10 minutes at […]. The supernatant was removed and the cells were re-suspended in plating media for counting. After the cells were re-suspended in plating media, 20 μL of the re-suspension was transferred and mixed with 20 μL of AOPI staining solution. The solution was gently mixed and cells were counted using a Cellometer (Nexcelom, Lawrence, Mass.). After counting, the cells were then re-suspended at 1 or 2 million viable cells/mL in Williams' E media containing 2 mmol/L L-glutamine (pH 7.4).
(§2) The hepatocyte suspension (50 μL/well) was added into a 48-well plate. […]
(§3) The LC-MS/MS system was composed of a Shimadzu HPLC and an AB-SCIEX TripleTOF 5600 hybrid quadrupole and TOF mass spectrometer (Framingham, Mass.). […] The samples obtained from incubations with hepatocytes were analyzed under both negative and positive scan modes. […]

hepatocytes of human = assay: Hepatocyte incubation, metabolite identification (human); format: in vitro ADME; conditions: 10 μmol/L
Description: as §1, §2, §3

CT26 tumors = assay: CT26 dual tumor model (mouse colon cancer model)
Description: For study B, treatment was started 8 days (0.6 mg/kg, and 10 mg/kg) after the tumor implantation, when the average tumors reached approximately 120 mm^3.
All the mice in the study have two subcutaneous CT26 tumors. The “treated tumor” indicates the tumor with compound direct administration, while “untreated tumor” indicates the tumor without direct compound administration. Tumor volume was followed throughout the experiment. Tumor volume is measured two times weekly after the start of treatment. Tumor burden is calculated from caliper measurements by the formula for the volume of a prolate ellipsoid (L×W^2)/2 where L and W are the respective orthogonal length and width measurements (mm).

[3] = tested on: hepatocytes of Sprague Dawley rat; assay: Hepatocyte incubation, metabolite identification (rat); format: in vitro ADME; conditions: 10 μmol/L
Description: as §1, §2, §3

[4] = tested on: hepatocytes of CD-1 mouse; assay: Hepatocyte incubation, metabolite identification (mouse); format: in vitro ADME; conditions: 10 μmol/L
Description: as §1, §2, §3

[5] = tested on: hepatocytes of Beagle dog; assay: Hepatocyte incubation, metabolite identification (dog); format: in vitro ADME; conditions: 10 μmol/L
Description: as §1, §2, §3

[6] = Table 6, head only in drawing 188, ammonium salt form except Compounds 26, 33, 34 (bis-TEA salts)

EC50 (REF Human STING): > 100 µM
Structure (SMILES): O=P1(S)OC[C@H]2O[C@@H]3[C@H](F)[C@@H]2OP(=O)(S)OC[C@H]2OC([C@H](F)[C@@H]2O1)n1cnc2c(ncnc21)NCC/C=C/CNc1ncnc2c1ncn23 (single isomer, unassigned) [Compound 37]

EC50 (Human STING; [6]): 7.4 µM
Structure (SMILES): O=[P@@]1(S)OC[C@H]2O[C@@H]3[C@H](F)[C@@H]2O[P@](=O)(S)OC[C@H]2OC([C@H](F)[C@@H]2O1)n1cnc2c(ncnc21)OC/C=C/COc1ncnc2c1ncn23 [Compound 26]

Structure (SMILES): C=CCN(C(=O)c1ccccc1)c1ncnc2c1ncn2[C@@H]1O[C@@H]2COP(=S)(OCCC#N)O[C@H]3[C@@H](F)[C@H](n4cnc5c(N(CC=C)C(=O)c6ccccc6)ncnc54)O[C@@H]3COP(=O)(S)O[C@H]2[C@H]1F (stereo partly drawn)
ring closure, yield of all isomers (from C=CCN(C(=O)c1ccccc1)c1ncnc2c1ncn2[C@@H]1O[C@H](COP(=S)(OCCC#N)O[C@H]2[C@@H](F)[C@H](n3cnc4c(N(CC=C)C(=O)c5ccccc5)ncnc43)O[C@@H]2CO)[C@@H](O[PH](=O)O)[C@H]1F, other bond, 2 steps): 100%

metabolites identified (LC-MS/MS) ([2]; monkey hepatocytes): No apparent metabolite
stability in incubations with hepatocytes ([2]; monkey, up to 240 minutes): stable
metabolites identified (LC-MS/MS) (hepatocytes of human; human hepatocytes): No apparent metabolite
stability in incubations with hepatocytes (hepatocytes of human; human, up to 240 minutes): stable
metabolites identified (LC-MS/MS) ([3]; rat hepatocytes): No apparent metabolite
stability in incubations with hepatocytes ([3]; rat, up to 240 minutes): stable
metabolites identified (LC-MS/MS) ([4]; mouse hepatocytes): No apparent metabolite
stability in incubations with hepatocytes ([4]; mouse, up to 240 minutes): stable
metabolites identified (LC-MS/MS) ([5]; dog hepatocytes): No apparent metabolite
stability in incubations with hepatocytes ([5]; dog, up to 240 minutes): stable
Structure (SMILES): O=[P@]1(S)OC[C@H]2O[C@@H]3[C@H](F)[C@@H]2O[P@](=O)(S)OC[C@H]2O[C@H]([C@H](F)[C@@H]2O1)n1cnc2c(ncnc21)NC/C=C/CNc1ncnc2c1ncn23 [Compound 1a]
IFNβ ([1]; 0.1 μM, 24 hours): 21.3 ± 17.8 pg/mL
IFNβ ([1]; 10 μM, 24 hours): 540.2 ± 215.0 pg/mL
IFNβ [1]: 227.5 ± 62.4 pg/mL
cure rate, treated tumors (CT26 tumors; 0.6 mg/kg, intratumoral single dose (study B)): 20%
animals cured of treated tumor at the end of study (CT26 tumors; 10 mg/kg, intratumoral single dose (study B)): 100%
curative effects, untreated tumors (CT26 tumors; 10 mg/kg, intratumoral single dose into the other tumor): 80%

Structure (SMILES): CC(C)(C)[Si](C)(C)O[C@H]1[C@H]2O[P@@](=O)(SCc3ccccc3[N+](=O)[O-])OC[C@H]3O[C@@H]4[C@H](F)[C@@H]3O[P@](=O)(SCc3ccccc3[N+](=O)[O-])OC[C@H]1O[C@H]2n1cnc2c(ncnc21)N(C(=O)c1ccccc1)CC=CCN(C(=O)c1ccccc1)c1ncnc2c1ncn24
ring closure, yield of all isomers (from C=CCN(C(=O)c1ccccc1)c1ncnc2c1ncn2[C@@H]1O[C@@H]2CO[P@](=O)(SCc3ccccc3[N+](=O)[O-])O[C@@H]3[C@H](O[Si](C)(C)C(C)(C)C)[C@@H](CO[P@@](=O)(SCc4ccccc4[N+](=O)[O-])O[C@H]2[C@H]1F)O[C@H]3n1cnc2c(N(CC=C)C(=O)c3ccccc3)ncnc21, rcm bond): 6.1%

Structure (SMILES): O=[P@]1(S)OC[C@H]2OC3[C@H](F)[C@@H]2O[P@](=O)(S)OC[C@H]2O[C@H]([C@H](F)[C@@H]2O1)n1cnc2c(ncnc21)NCC1NC1CNc1ncnc2c1ncn23 (single isomer, unassigned) [Compound 36]
EC50 (Human STING; [6]): 94.1 µM

Structure (SMILES): O=[P@]1(S)OC[C@H]2OC3[C@H](F)[C@@H]2O[P@](=O)(S)OC[C@H]2O[C@H]([C@H](F)[C@@H]2O1)n1cnc2c(ncnc21)NCC1NC1CNc1ncnc2c1ncn23 (single isomer, unassigned) [Compound 35]
EC50 (Human STING; [6]): 67.2 µM

Structure (SMILES): O=C(c1ccccc1)N1CC=CCOc2ncnc3c2ncn3[C@@H]2O[C@@H]3COP(=O)(SCc4ccccc4[N+](=O)[O-])O[C@H]4[C@@H](F)[C@@H](O[C@@H]4COP(=O)(SCc4ccccc4[N+](=O)[O-])O[C@H]3[C@H]2F)n2cnc3c1ncnc32 (stereo partly drawn)
ring closure, yield of all isomers (from C=CCOc1ncnc2c1ncn2[C@@H]1O[C@@H]2COP(=O)(SCc3ccccc3[N+](=O)[O-])O[C@H]3[C@@H](F)[C@H](n4cnc5c(N(CC=C)C(=O)c6ccccc6)ncnc54)O[C@@H]3COP(=O)(SCc3ccccc3[N+](=O)[O-])O[C@H]2[C@H]1F, rcm bond): 25.6%

EC50 (Human STING; [6]): 8.4 µM
Structure (SMILES): O=[P@]1(S)OC[C@H]2OC3[C@H](F)[C@@H]2O[P@](=O)(S)OC[C@H]2O[C@H]([C@H](F)[C@@H]2O1)n1cnc2c(ncnc21)NCC#CCNc1ncnc2c1ncn23 [Compound 29]

Structure (SMILES): O=P1(O)OC[C@H]2OC3[C@H](F)[C@@H]2O[P@@](O)(=S)OC[C@H]2O[C@H]([C@H](F)[C@@H]2O1)n1cnc2c(ncnc21)NC/C=C/CNc1ncnc2c1ncn23 [Compound 27]
EC50 (Human STING): 27.6 µM

Structure (SMILES): CC(C)(C)[Si](C)(C)O[C@@H]1[C@@H]2N[P@@](=S)(OCCC#N)OC[C@H]3O[C@@H]4[C@H](O[Si](C)(C)C(C)(C)C)[C@@H]3N[P@](=S)(OCCC#N)OC[C@H]2O[C@H]1n1cnc2c(ncnc21)N(C(=O)c1ccccc1)CC=CCN(C(=O)c1ccccc1)c1ncnc2c1ncn24
ring closure, yield of all isomers (from C=CCN(C(=O)c1ccccc1)c1ncnc2c1ncn2[C@@H]1O[C@@H]2CO[P@@](=S)(OCCC#N)N[C@H]3[C@@H](O[Si](C)(C)C(C)(C)C)[C@H](n4cnc5c(N(CC=C)C(=O)c6ccccc6)ncnc54)O[C@@H]3CO[P@](=S)(OCCC#N)N[C@H]2[C@H]1O[Si](C)(C)C(C)(C)C, rcm bond): 24.5%

Structure (SMILES): O=[N+]([O-])c1ccccc1CSP1(=O)OC[C@H]2O[C@H]([C@H](F)[C@@H]2O)n2cnc3c(ncnc32)CCC=CCCc2ncnc3c2ncn3[C@@H]2O[C@H](CO)[C@@H](O1)[C@H]2F (stereo partly drawn)
ring closure, yield of all isomers (from C=CCCc1ncnc2c1ncn2[C@@H]1O[C@H](COP(=O)(O[C@H]2[C@@H](F)[C@H](n3cnc4c(CCC=C)ncnc43)O[C@@H]2COC(c2ccccc2)(c2ccc(OC)cc2)c2ccc(OC)cc2)SCc2ccccc2[N+](=O)[O-])[C@@H](O)[C@H]1F, rcm bond, 2 steps): 26.2%

Structure (SMILES): O=[N+]([O-])c1ccccc1CS[P@]1(=O)OC[C@H]2O[C@@H]3[C@H](F)[C@@H]2O[P@](=O)(SCc2ccccc2[N+](=O)[O-])OC[C@H]2O[C@H]([C@H](F)[C@@H]2O1)n1cnc2c(ncnc21)OCC=CCOc1ncnc2c1ncn23
ring closure, yield of all isomers (from C=CCOc1ncnc2c1ncn2[C@@H]1O[C@@H]2CO[P@@](=O)(SCc3ccccc3[N+](=O)[O-])O[C@H]3[C@@H](F)[C@H](n4cnc5c(OCC=C)ncnc54)O[C@@H]3CO[P@@](=O)(SCc3ccccc3[N+](=O)[O-])O[C@H]2[C@H]1F, rcm bond): 3.6%

Structure (SMILES): O=P1(O)OC[C@H]2OC3[C@H](F)[C@@H]2O[P@](O)(=S)OC[C@H]2O[C@H]([C@H](F)[C@@H]2O1)n1cnc2c(ncnc21)NC/C=C/CNc1ncnc2c1ncn23 [Compound 28]
EC50 (Human STING): 18.4 µM

Structure (SMILES): O=C(c1ccccc1)N1CC=CCN(C(=O)c2ccccc2)c2ncnc3c2ncn3[C@@H]2O[C@@H]3CO[P@](=O)(SCc4ccccc4[N+](=O)[O-])O[C@H]4[C@@H](F)[C@@H](O[C@@H]4CO[P@@](=O)(SCc4ccccc4[N+](=O)[O-])O[C@H]3[C@H]2F)n2cnc3c1ncnc32
ring closure, yield of all isomers (from C=CCN(C(=O)c1ccccc1)c1ncnc2c1ncn2[C@@H]1O[C@@H]2CO[P@@](=O)(SCc3ccccc3[N+](=O)[O-])O[C@H]3[C@@H](F)[C@H](n4cnc5c(N(CC=C)C(=O)c6ccccc6)ncnc54)O[C@@H]3CO[P@](=O)(SCc3ccccc3[N+](=O)[O-])O[C@H]2[C@H]1F, rcm bond): 39%
